Patent publication US20200069691A1, “HETEROCYCLIC COMPOUNDS AS HIV PROTEASE INHIBITORS” (Merck Sharp & Dohme Corp., priority 2016, published 2020)

Target: T1, wild-type HIV-1 protease (Human immunodeficiency virus type 1 group M subtype B, UniProt P04585)
T1 construct: Escherichia coli expressed wild-type HIV-1 protease protein
Experiment: Assay for Inhibition of Microbial Expressed HIV Protease (peptide substrate cleavage, LC-MS/MS readout)
Type: biochemical
Details: E. coli expressed wild-type HIV-1 protease, mean of at least two independent experiments, read-out: HIV Pr Enzyme HIV1 PR IC50
Procedure, shortened: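 Cleavage of Val-Ser-Gln-Asn-(β-naphthyl)Ala-Pro-Ile-Val (400 μM) by recombinant HIV-1 protease ([…]) ran 1 h at 30 °C after a 30 min room-temperature inhibitor preincubation in 50 mM sodium acetate pH 5.5. Product peak areas by LC-MS/MS gave inhibition; values average at least two independent runs.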

N=C1N[C@](CCCC(F)(F)F)(c2ccc(F)cc2)C(=O)N1Cc1ccc(C(F)(F)F)c(C(=O)N2Cc3cnc(-c4cnc(-n5cccn5)nc4)nc3C2)c1 [Compound 69, (5R)-5-(4-fluorophenyl)-2-imino-3-[3-({2-[2-(1H-pyrazol-1-yl)pyrimidin-5-yl]-5,7-dihydro-6H-pyrrolo[3,4-d]pyrimidin-6-yl}carbonyl)-4-(trifluoromethyl)benzyl]-5-(4,4,4-trifluorobutyl)imidazolidin-4-one]
IC50: 8.8 nM

N=C1N[C@](C[C@@H]2CCOC2)(c2ccccc2)C(=O)N1Cc1ccc(C(F)(F)F)c(C(=O)N2Cc3nccnc3C2)c1 [Compound 70, (5R)-3-[3-(5,7-dihydro-6H-pyrrolo[3,4-b]pyrazin-6-ylcarbonyl)-4-(trifluoromethyl)-benzyl]-2-imino-5-phenyl-5-[(3R)-tetrahydrofuran-3-ylmethyl]imidazolidin-4-one]
IC50: 8.89 nM

N=C1N[C@](CCCC(F)(F)F)(c2ccc(F)cc2)C(=O)N1Cc1ccc(C(F)(F)F)c(C(=O)N2Cc3cnc(NC4CCCC4)nc3C2)c1 [Compound 71, (5R)-3-[3-{[2-(cyclopentylamino)-5,7-dihydro-6H-pyrrolo[3,4-d]pyrimidin-6-yl]carbonyl}-4-(trifluoromethyl)benzyl]-5-(4-fluorophenyl)-2-imino-5-(4,4,4-trifluorobutyl)imidazolidin-4-one]
IC50: 9.19 nM

N=C1N[C@](CCCC(F)(F)F)(c2ccc(F)cc2)C(=O)N1Cc1ccc(C(F)(F)F)c(C(=O)N2Cc3cnc(-c4cnn(-c5ccccc5)c4)nc3C2)c1 [Compound 72, (5R)-5-(4-fluorophenyl)-2-imino-3-[3-{[2-(1-phenyl-1H-pyrazol-4-yl)-5,7-dihydro-6H-pyrrolo[3,4-d]pyrimidin-6-yl]carbonyl}-4-(trifluoromethyl)benzyl]-5-(4,4,4-trifluorobutyl)imidazolidin-4-one]
IC50: 9.2 nM

N=C1N[C@](CCCC(F)(F)F)(c2ccc(F)cc2)C(=O)N1Cc1ccc(C(F)(F)F)c(C(=O)N2Cc3cnc(C(F)(F)F)nc3C2)c1 [Compound 73, (5R)-5-(4-fluorophenyl)-2-imino-5-(4,4,4-trifluorobutyl)-3-[4-(trifluoromethyl)-3-{[2-(trifluoro-methyl)-5,7-dihydro-6H-pyrrolo-[3,4-d]pyrimidin-6-yl]carbonyl}-benzyl]imidazolidin-4-one]
IC50: 9.29 nM

N=C1N[C@](CCCC(F)(F)F)(c2ccc(F)cc2)C(=O)N1Cc1ccc(C(F)(F)F)c(C(=O)N2Cc3cnc(NCC4CC4)nc3C2)c1 [Compound 74, (5R)-3-[3-({2-[(cyclopropylmethyl)amino]-5,7-dihydro-6H-pyrrolo[3,4-d]pyrimidin-6-yl}carbonyl)-4-(trifluoromethyl)benzyl]-5-(4-fluorophenyl)-2-imino-5-(4,4,4-trifluorobutyl)imidazolidin-4-one]
IC50: 9.6 nM

N=C1NC(CCC2CC2)(c2cccc(C(F)(F)F)c2)C(=O)N1Cc1ccc(C(F)(F)F)c(C(=O)N2Cc3nccnc3C2)c1 (stereo not shown) [Compound 75, 5-(2-cyclopropylethyl)-3-[3-(5,7-dihydro-6H-pyrrolo[3,4-b]pyrazin-6-ylcarbonyl)-4-(trifluoromethyl)-benzyl]-2-imino-5-[3-(trifluoro-methyl)phenyl]-imidazolidin-4-one]
IC50: 10.2 nM

N=C1NC(CCC2CC2)(c2ccc(-c3cccnc3)cc2)C(=O)N1Cc1ccc(C(F)(F)F)c(C(=O)N2Cc3nccnc3C2)c1 (stereo not shown) [Compound 76, 5-(2-cyclopropylethyl)-3-[3-(5,7-dihydro-6H-pyrrolo[3,4-b]pyrazin-6-ylcarbonyl)-4-(trifluoromethyl-)benzyl]-2-imino-5-(4-pyridin-3-ylphenyl) imidazolidin-4-one]
IC50: 10.4 nM

CC(C)CC(c1ccc(C(F)(F)F)c(C(=O)N2Cc3nccnc3C2)c1)N1C(=N)N[C@](CC2CC2)(c2ccccc2)CC1=O (stereo partly drawn) [Compound 77, (6S)-6-(cyclopropylmethyl)-3-{1-[3-(5,7-dihydro-6H-pyrrolo[3,4-b]pyrazin-6-ylcarbonyl)-4-(trifluoromethyl)phenyl]-3-methyl-butyl}-2-imino-6-phenyltetra-hydropyrimidin-4(1H)-one]
IC50: 10.5 nM

N=C1NC(CCC2CC2)(c2cccc(F)c2)C(=O)N1Cc1ccc(C(F)(F)F)c(C(=O)N2CCn3c(nnc3C(F)(F)F)C2)c1 (stereo not shown) [Compound 78, 5-(2-cyclopropylethyl)-5-(3-fluorophenyl)-2-imino-3-[4-(trifluoromethyl)-3-{[3-(trifluoro-methyl)-5,6-dihydro-[1,2,4]triazolo-[4,3-a]pyrazin-7(8H)-yl]carbonyl}-benzyl]imidazolidin-4-one]
IC50: 10.5 nM

N#Cc1cccc(-c2ncc3c(n2)CN(C(=O)c2cc(CN4C(=N)N[C@](CCCC(F)(F)F)(c5ccc(F)cc5)C4=O)ccc2C(F)(F)F)C3)c1 [Compound 79, 3-(6-{[5-{[(4R)-4-(4-fluorophenyl)-2-imino-5-oxo-4-(4,4,4-trifluoro-butyl)imidazolidin-1-yl]methyl}-2-(trifluoromethyl)-phenyl]carbonyl}-6,7-dihydro-5H-pyrrolo[3,4-d]pyrimidin-2-yl)benzonitrile]
IC50: 10.8 nM

CN(C)c1ncc2c(n1)CN(C(=O)c1cc(CN3C(=N)N[C@](CCCC(F)(F)F)(c4ccc(F)cc4)C3=O)ccc1C(F)(F)F)C2 [Compound 80, (5R)-3-[3-{[2-(dimethylamino)-5,7-dihydro-6H-pyrrolo[3,4-d]pyrimidin-6-yl]carbonyl}-4-(trifluoromethyl)benzyl]-5-(4-fluorophenyl)-2-imino-5-(4,4,4-trifluorobutyl)imidazolidin-4-one]
IC50: 11.5 nM

COC(=O)Nc1ncc2c(n1)CN(C(=O)c1ccc3c(c1)[C@H](N1C(=N)N[C@](CCC(C)C)(c4ccccc4)C1=O)CCC3)C2 [Compound 81, methyl [6-({(8R)-8-[(4R)-2-imino-4-(3-methylbutyl)-5-oxo-4-phenylimidazolidin-1-yl]-5,6,7,8-tetrahydronaphthalen-2-yl}carbonyl)-6,7-dihydro-5H-pyrrolo[3,4-d]pyrimidin-2-yl]carbamate]
IC50: 12 nM

N=C1NC(CCC2CC2)(c2cc(F)cc(F)c2)C(=O)N1Cc1ccc(C(F)(F)F)c(C(=O)N2CCn3c(nnc3C(F)(F)F)C2)c1 (stereo not shown) [Compound 82, 5-(2-cyclopropylethyl)-5-(3,5-difluorophenyl)-2-imino-3-[4-(trifluoromethyl)-3-{[3-(trifluoro-methyl)-5,6-dihydro-[1,2,4]triazolo-[4,3-a]pyrazin-7(8H)-yl]carbonyl}-benzyl]imidazolidin-4-one]
IC50: 13.1 nM

N=C1N[C@](CCCC(F)(F)F)(c2ccc(F)cc2)C(=O)N1Cc1ccc(C(F)(F)F)c(C(=O)N2Cc3cnc(N4CCOCC4)nc3C2)c1 [Compound 83, (5R)-5-(4-fluorophenyl)-2-imino-3-{3-[(2-morpholin-4-yl-5,7-dihydro-6H-pyrrolo[3,4-d]pyrimidin-6-yl)carbonyl]-4-(trifluoromethyl)-benzyl}-5-(4,4,4-trifluorobutyl)imidazolidin-4-one]
IC50: 13.9 nM

Cc1nonc1N1CCN(C(=O)c2cc(CN3C(=N)N[C@](CCCC(F)(F)F)(c4ccc(F)cc4)C3=O)ccc2C(F)(F)F)CC1 [Compound 84, (5R)-5-(4-fluorophenyl)-2-imino-3-[3-{[4-(4-methyl-1,2,5-oxadiazol-3-yl)piperazin-1-yl]carbonyl}-4-(trifluoromethyl)benzyl]-5-(4,4,4-trifluorobutyl)imidazolidin-4-one]
IC50: 14.1 nM
